Assay results published in patent publication US20250114345A1, “COMPOUNDS AND COMPOSITIONS AS CBP/P300 DEGRADERS AND USES THEREOF” (Oncopia Therapeutics, Inc. d/b/a/ SK Life Science Labs, priority 2023, published 2025).

Tests used:
p300 = target: T1, p300 (Homo sapiens, UniProt Q09472); assay: P300 degradation, HiBit technology in A549 P300 HiBit cells (2 h); assay type: cell-based; details: 2 hrs post treatment; for Dmax: A549, A549 P300 HiBit cells; for DC50: A549 P300 HiBit cells
T1 construct: host or cells: A549 P300 HiBit cells
In short: (§1)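 Cells: A549 HiBiT-tagged lines, 0.2×10^4/well, F-12K + 10% HI-FBS, equilibrated overnight. Tx: serial dilution of cpd (10 mM DMSO stock). Readout: HiBiT lytic reagent, 10 min RT shaking, luminescence → potency, Dmax.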

CBP = target: T2, CBP (Homo sapiens, UniProt Q92793); assay: CBP degradation, HiBit technology in A549 CBP HiBit cells (24 h); assay type: cell-based; details: 24 hrs post treatment
T2 construct: host or cells: A549 CBP HiBit cells
In short: as §1

T1 sequence (Q09472 whole entry): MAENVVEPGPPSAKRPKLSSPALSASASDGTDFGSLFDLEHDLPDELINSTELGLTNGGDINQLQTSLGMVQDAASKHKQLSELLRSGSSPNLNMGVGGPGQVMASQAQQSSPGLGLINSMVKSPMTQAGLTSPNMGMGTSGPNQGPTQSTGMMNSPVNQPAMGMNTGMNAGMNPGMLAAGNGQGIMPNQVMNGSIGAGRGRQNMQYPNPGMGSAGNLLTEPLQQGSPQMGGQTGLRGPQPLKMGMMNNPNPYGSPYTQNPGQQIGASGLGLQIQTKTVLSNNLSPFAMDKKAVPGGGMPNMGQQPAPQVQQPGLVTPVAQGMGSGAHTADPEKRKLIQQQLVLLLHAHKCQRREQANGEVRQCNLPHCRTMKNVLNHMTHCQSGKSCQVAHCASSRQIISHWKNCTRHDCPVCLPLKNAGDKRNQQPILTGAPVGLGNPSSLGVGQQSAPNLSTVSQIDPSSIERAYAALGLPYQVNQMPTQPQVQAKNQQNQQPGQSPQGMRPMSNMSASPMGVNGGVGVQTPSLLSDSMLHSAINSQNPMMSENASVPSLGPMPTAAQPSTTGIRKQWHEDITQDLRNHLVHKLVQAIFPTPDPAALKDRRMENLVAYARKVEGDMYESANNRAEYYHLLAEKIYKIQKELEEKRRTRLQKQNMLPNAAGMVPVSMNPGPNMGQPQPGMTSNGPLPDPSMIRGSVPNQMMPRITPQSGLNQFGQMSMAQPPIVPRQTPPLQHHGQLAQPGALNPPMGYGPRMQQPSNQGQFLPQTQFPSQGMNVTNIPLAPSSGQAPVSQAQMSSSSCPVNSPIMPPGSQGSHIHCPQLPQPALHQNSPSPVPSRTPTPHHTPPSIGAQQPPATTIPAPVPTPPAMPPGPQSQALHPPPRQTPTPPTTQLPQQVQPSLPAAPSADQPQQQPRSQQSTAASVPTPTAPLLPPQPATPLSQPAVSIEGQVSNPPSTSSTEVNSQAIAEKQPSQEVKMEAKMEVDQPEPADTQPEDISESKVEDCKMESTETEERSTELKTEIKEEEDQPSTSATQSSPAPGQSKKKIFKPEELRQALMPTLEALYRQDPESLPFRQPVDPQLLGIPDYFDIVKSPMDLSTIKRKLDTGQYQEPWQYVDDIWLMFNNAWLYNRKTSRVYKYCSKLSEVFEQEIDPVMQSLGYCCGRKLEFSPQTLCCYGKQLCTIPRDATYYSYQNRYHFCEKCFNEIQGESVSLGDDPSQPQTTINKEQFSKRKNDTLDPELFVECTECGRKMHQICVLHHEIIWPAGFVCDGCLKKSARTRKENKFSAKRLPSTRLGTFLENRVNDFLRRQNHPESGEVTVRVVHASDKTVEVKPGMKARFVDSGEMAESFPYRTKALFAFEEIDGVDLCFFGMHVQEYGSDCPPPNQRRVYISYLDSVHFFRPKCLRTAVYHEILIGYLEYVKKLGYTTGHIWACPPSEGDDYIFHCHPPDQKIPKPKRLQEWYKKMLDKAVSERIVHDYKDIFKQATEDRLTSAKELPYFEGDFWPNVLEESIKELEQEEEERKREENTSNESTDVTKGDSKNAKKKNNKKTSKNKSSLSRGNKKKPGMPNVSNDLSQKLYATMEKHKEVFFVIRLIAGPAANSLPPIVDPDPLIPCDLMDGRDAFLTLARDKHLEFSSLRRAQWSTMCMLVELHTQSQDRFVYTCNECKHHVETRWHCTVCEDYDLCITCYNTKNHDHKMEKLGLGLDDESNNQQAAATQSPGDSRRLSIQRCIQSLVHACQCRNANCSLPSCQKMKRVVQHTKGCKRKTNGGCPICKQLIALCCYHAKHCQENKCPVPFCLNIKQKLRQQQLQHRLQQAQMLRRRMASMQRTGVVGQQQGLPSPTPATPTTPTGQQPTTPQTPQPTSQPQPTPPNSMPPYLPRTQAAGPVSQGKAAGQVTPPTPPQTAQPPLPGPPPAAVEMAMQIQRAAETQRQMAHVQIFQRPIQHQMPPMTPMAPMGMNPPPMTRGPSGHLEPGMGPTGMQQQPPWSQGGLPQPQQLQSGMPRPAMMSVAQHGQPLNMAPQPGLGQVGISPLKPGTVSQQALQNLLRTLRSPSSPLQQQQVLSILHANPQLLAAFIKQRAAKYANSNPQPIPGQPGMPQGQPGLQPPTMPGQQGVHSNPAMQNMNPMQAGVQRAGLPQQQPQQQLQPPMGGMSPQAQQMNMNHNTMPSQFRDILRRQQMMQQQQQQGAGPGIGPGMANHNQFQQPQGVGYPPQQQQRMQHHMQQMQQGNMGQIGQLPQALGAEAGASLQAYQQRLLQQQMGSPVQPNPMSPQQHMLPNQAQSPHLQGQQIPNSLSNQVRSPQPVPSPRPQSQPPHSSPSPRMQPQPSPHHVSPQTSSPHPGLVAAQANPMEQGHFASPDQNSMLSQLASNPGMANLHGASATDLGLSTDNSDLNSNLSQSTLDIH
T2 sequence (Q92793 whole entry): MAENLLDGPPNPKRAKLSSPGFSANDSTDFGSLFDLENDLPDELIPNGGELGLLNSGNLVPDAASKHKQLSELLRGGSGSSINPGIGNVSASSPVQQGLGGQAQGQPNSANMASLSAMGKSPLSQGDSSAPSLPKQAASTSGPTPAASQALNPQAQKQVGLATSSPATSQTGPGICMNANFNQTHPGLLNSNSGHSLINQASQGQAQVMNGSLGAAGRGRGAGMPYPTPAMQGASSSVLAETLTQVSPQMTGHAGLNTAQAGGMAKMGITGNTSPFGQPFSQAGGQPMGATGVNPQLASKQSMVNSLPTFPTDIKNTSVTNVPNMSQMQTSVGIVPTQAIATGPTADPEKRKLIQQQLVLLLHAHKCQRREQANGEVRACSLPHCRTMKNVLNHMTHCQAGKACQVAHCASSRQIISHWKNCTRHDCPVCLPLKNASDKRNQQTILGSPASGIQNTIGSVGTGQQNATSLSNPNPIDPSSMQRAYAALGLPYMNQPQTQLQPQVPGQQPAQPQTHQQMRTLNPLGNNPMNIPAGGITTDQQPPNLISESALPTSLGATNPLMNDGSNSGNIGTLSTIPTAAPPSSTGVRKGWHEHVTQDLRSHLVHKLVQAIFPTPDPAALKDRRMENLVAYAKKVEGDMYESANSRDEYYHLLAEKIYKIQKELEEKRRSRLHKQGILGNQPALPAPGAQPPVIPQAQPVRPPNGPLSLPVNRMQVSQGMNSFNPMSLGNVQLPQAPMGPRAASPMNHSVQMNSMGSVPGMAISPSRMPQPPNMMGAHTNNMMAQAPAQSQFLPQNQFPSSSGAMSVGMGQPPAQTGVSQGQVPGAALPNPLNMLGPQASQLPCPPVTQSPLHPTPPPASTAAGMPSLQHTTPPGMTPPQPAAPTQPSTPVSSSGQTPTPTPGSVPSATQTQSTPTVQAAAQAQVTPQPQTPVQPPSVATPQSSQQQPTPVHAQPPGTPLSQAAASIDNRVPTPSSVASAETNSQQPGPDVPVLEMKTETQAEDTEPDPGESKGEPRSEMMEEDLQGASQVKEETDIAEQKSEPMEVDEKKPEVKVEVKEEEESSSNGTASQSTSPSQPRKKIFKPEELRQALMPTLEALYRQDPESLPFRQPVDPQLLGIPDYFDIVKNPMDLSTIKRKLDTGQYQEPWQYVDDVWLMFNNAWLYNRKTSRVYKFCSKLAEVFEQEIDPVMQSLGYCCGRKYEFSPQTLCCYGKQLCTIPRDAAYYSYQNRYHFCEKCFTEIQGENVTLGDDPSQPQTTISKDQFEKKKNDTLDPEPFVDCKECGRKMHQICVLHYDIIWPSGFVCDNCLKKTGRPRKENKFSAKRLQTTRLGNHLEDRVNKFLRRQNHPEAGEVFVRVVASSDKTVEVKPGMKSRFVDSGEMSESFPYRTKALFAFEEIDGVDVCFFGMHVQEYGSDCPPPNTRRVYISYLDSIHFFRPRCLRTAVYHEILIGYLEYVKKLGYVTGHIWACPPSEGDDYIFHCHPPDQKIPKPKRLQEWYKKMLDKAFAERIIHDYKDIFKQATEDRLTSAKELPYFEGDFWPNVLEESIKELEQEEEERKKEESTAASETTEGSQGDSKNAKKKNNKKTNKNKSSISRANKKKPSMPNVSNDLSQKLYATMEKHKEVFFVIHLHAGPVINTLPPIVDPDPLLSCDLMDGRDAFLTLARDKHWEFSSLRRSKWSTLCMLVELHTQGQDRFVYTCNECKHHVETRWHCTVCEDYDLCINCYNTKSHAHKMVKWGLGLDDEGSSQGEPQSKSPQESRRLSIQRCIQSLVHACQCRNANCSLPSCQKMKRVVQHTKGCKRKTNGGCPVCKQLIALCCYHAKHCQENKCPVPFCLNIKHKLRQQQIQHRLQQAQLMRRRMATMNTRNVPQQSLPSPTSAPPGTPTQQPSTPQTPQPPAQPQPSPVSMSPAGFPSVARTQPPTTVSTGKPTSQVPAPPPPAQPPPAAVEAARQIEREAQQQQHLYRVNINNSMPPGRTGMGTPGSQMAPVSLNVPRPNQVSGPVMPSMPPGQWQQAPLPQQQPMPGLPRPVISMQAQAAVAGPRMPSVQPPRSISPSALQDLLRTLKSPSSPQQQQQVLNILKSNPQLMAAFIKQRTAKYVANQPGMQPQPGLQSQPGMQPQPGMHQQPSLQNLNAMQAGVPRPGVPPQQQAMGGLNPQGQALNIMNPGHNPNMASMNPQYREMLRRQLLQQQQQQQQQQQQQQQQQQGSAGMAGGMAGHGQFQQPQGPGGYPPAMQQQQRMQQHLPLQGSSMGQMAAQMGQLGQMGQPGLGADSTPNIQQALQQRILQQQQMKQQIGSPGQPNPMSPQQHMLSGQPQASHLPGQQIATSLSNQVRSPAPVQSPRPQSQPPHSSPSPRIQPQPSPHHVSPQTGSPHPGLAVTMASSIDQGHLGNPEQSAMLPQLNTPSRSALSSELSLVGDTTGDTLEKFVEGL

| Structure (SMILES) | Dmax (p300) | DC50 (p300) | DC50 (CBP) | Dmax (CBP) |
| --- | --- | --- | --- | --- |
| Cc1cc2c(N3CCCc4nc(-c5ccc(C(=O)NCC#Cc6ccc7occ(C8CCC(=O)NC8=O)c7c6)nc5)ncc43)cc(C3CCOCC3)cc2n(C)c1=O (centres unmarked) [Example B53, 5-(5-(1,3-dimethyl-2-oxo-7-(tetrahydro-2H-pyran-4-yl)-1,2-dihydroquinolin-5-yl)-5,6,7,8-tetrahydropyrido[3,2-d]pyrimidin-2-yl)-N-(3-(3-(2,6-dioxopiperidin-3-yl)benzofuran-5-yl)prop-2-yn-1-yl)picolinamide] | > 80% | < 1 nM | > 1000 nM | < 20% |
| Cc1cc2c(N3CCCc4nc(-c5ccc(C(=O)NCC#Cc6ccc7occ([C@H]8CCC(=O)NC8=O)c7c6)nc5)ncc43)cc(C3CCOCC3)cc2n(C)c1=O [Example B54, (R)-5-(5-(1,3-dimethyl-2-oxo-7-(tetrahydro-2H-pyran-4-yl)-1,2-dihydroquinolin-5-yl)-5,6,7,8-tetrahydropyrido[3,2-d]pyrimidin-2-yl)-N-(3-(3-(2,6-dioxopiperidin-3-yl)benzofuran-5-yl)prop-2-yn-1-yl)picolinamide] | > 80% | < 1 nM | > 1000 nM | < 20% |
| Cc1cc2c(N3CCCc4nc(-c5ccc(C(=O)NCC#Cc6ccc7occ([C@@H]8CCC(=O)NC8=O)c7c6)nc5)ncc43)cc(C3CCOCC3)cc2n(C)c1=O [Example B55, (S)-5-(5-(1,3-dimethyl-2-oxo-7-(tetrahydro-2H-pyran-4-yl)-1,2-dihydroquinolin-5-yl)-5,6,7,8-tetrahydropyrido[3,2-d]pyrimidin-2-yl)-N-(3-(3-(2,6-dioxopiperidin-3-yl)benzofuran-5-yl)prop-2-yn-1-yl)picolinamide] | > 80% | 1 to 9.9 nM | > 1000 nM | < 20% |
| Cc1cc2c(N3CCCc4nc(-c5ccc(C(=O)NCC#Cc6cc7c(C8CCC(=O)NC8=O)cccc7o6)nc5)ncc43)cc(C(C)C)nc2n(C)c1=O (centres unmarked) [Example B56, N-(3-(4-(2,6-dioxopiperidin-3-yl)benzofuran-2-yl)prop-2-yn-1-yl)-5-(5-(2-isopropyl-6,8-dimethyl-7-oxo-7,8-dihydro-1,8-naphthyridin-4-yl)-5,6,7,8-tetrahydropyrido[3,2-d]pyrimidin-2-yl)picolinamide] | > 80% | 1 to 9.9 nM | > 1000 nM | < 20% |
| Cc1cc2c(N3CCOc4cc(-c5ccc(C(=O)NCC#Cc6ccc7occ(C8CCC(=O)NC8=O)c7c6)nc5)c(F)cc43)cc(N3CC4(COC4)C3)cc2n(C)c1=O (centres unmarked) [Example B58, 5-(4-(1,3-dimethyl-2-oxo-7-(2-oxa-6-azaspiro[3.3]heptan-6-yl)-1,2-dihydro-quinolin-5-yl)-6-fluoro-3,4-dihydro-2H-benzo[b][1,4]oxazin-7-yl)-N-(3-(3-(2,6-dioxopiperidin-3-yl)benzofuran-5-yl)prop-2-yn-1-yl)picolinamide] | > 80% | 1 to 9.9 nM | > 1000 nM | < 20% |
| Cc1cc(-c2ncc(N(C)c3cc(C4CCOCC4)cc4c3cc(C)c(=O)n4C)cn2)cnc1C(=O)NCC#Cc1cc2c(C3CCC(=O)NC3=O)cccc2o1 (centres unmarked) [Example B59, 5-(5-((1,3-dimethyl-2-oxo-7-(tetrahydro-2H-pyran-4-yl)-1,2-dihydroquinolin-5-yl) (methyl)amino)pyrimidin-2-yl)-N-(3-(4-(2,6-dioxopiperidin-3-yl)benzofuran-2-yl)prop-2-yn-1-yl)-3-methylpicolinamide] | > 80% | 1 to 9.9 nM | > 1000 nM | < 20% |
| Cc1cc2c(N3CCCc4nc(-c5ccc(C(=O)NCC#Cc6oc7cccc(C8CCC(=O)NC8=O)c7c6F)nc5)ncc43)cc(C3CCOCC3)cc2n(C)c1=O (centres unmarked) [Example B60, 5-(5-(1,3-dimethyl-2-oxo-7-(tetrahydro-2H-pyran-4-yl)-1,2-dihydroquinolin-5-yl)-5,6,7,8-tetrahydropyrido[3,2-d]pyrimidin-2-yl)-N-(3-(4-(2,6-dioxopiperidin-3-yl)-3-fluorobenzo-furan-2-yl)prop-2-yn-1-yl)picolinamide] | > 80% | 1 to 9.9 nM | > 1000 nM | < 20% |
| Cc1cc2c(N3CCCc4nc(-c5ccc(C(=O)NCC#Cc6ccc7occ(C8CCC(=O)NC8=O)c7c6)nc5)ncc43)cc(N3CCOCC3)nc2n(C)c1=O (centres unmarked) [Example B61, 5-(5-(6,8-dimethyl-2-morpholino-7-oxo-7,8-dihydro-1,8-naphthyridin-4-yl)-5,6,7,8-tetrahydropyrido[3,2-d]pyrimidin-2-yl)-N-(3-(3-(2,6-dioxopiperidin-3-yl)benzofuran-5-yl)prop-2-yn-1-yl)picolinamide] | 60 to 79% | 1 to 9.9 nM | > 1000 nM | < 20% |
| Cc1cc2c(N3CCCc4nc(-c5ccc(C(=O)NCC#Cc6ccc7occ(C8CCC(=O)NC8=O)c7c6)nc5)ncc43)nc(N3CCOCC3)cc2n(C)c1=O (centres unmarked) [Example B62, 5-(5-(1,3-dimethyl-7-morpholino-2-oxo-1,2-dihydro-1,6-naphthyridin-5-yl)-5,6,7,8-tetrahydropyrido[3,2-d]pyrimidin-2-yl)-N-(3-(3-(2,6-dioxopiperidin-3-yl)benzofuran-5-yl)prop-2-yn-1-yl)picolinamide] | > 80% | 1 to 9.9 nM | > 1000 nM | < 20% |
| Cc1cc2c(N3CCOc4cc(-c5ccc(C(=O)NCC#Cc6ccc7occ(C8CCC(=O)NC8=O)c7c6)nc5)c(F)cc43)cc(N3CC(C)(O)C3)cc2n(C)c1=O (centres unmarked) [Example B63, N-(3-(3-(2,6-dioxopiperidin-3-yl)benzofuran-5-yl)prop-2-yn-1-yl)-5-(6-fluoro-4-(7-(3-hydroxy-3-methylazetidin-1-yl)-1,3-dimethyl-2-oxo-1,2-dihydroquinolin-5-yl)-3,4-dihydro-2H-benzo[b][1,4]oxazin-7-yl) picolinamide] | > 80% | 1 to 9.9 nM | 10 to 99 nM | 20 to 39% |
| Cc1cc2c(N3CCCc4cc(-c5ccc(C(=O)NCC#Cc6ccc7occ(C8CCC(=O)NC8=O)c7c6)nc5)nnc43)cc(C3CCOCC3)cc2n(C)c1=O (centres unmarked) [Example B64, 5-(8-(1,3-dimethyl-2-oxo-7-(tetrahydro-2H-pyran-4-yl)-1,2-dihydroquinolin-5-yl)-5,6,7,8-tetrahydropyrido[2,3-c]pyridazin-3-yl)-N-(3-(3-(2,6-dioxopiperidin-3-yl)benzofuran-5-yl)prop-2-yn-1-yl)picolinamide] | > 80% | 1 to 9.9 nM | > 1000 nM | < 20% |
| Cc1cc2c(-c3cccc4cc(-c5ccc(C(=O)NCC#Cc6ccc7occ(C8CCC(=O)NC8=O)c7c6)nc5)ncc34)nc(N3CC(O)C3)cc2n(C)c1=O (centres unmarked) [Example B66, N-(3-(3-(2,6-dioxopiperidin-3-yl)benzofuran-5-yl)prop-2-yn-1-yl)-5-(8-(7-(3-hydroxy-azetidin-1-yl)-1,3-dimethyl-2-oxo-1,2-dihydro-1,6-naphthyridin-5-yl)isoquinolin-3-yl) picolinamide] | > 80% | < 1 nM | > 1000 nM | < 20% |
| Cc1cc2c(N3CCCc4nc(-c5ccc(C(=O)NCC#Cc6cc7c(C8CCC(=O)NC8=O)cccc7o6)nc5)ncc43)cccc2n(C)c1=O (centres unmarked) [Example B67, 5-(5-(1,3-dimethyl-2-oxo-1,2-dihydroquinolin-5-yl)-5,6,7,8-tetrahydropyrido[3,2-d]pyrimidin-2-yl)-N-(3-(4-(2,6-dioxopiperidin-3-yl)benzofuran-2-yl)prop-2-yn-1-yl)picolinamide] | > 80% | < 1 nM | 100 to 999 nM | < 20% |
| Cc1cc2c(N3CCCc4nc(-c5ccc(C(=O)NCC#Cc6ccc7occ(C8CCC(=O)NC8=O)c7c6)nc5)ncc43)nc(N3CC(F)C3)cc2n(C)c1=O (centres unmarked) [Example B68, N-(3-(3-(2,6-dioxopiperidin-3-yl)benzofuran-5-yl)prop-2-yn-1-yl)-5-(5-(7-(3-fluoroazetidin-1-yl)-1,3-dimethyl-2-oxo-1,2-dihydro-1,6-naphthyridin-5-yl)-5,6,7,8-tetrahydropyrido [3,2-d]pyrimidin-2-yl)picolinamide] | 60 to 79% | 1 to 9.9 nM | > 1000 nM | < 20% |
| Cc1cc2c(N3CCCc4nc(-c5ccc(C(=O)NCC#Cc6ccc7occ(C8CCC(=O)NC8=O)c7c6)nc5)ncc43)cncc2n(C)c1=O (centres unmarked) [Example B69, 5-(5-(1,3-dimethyl-2-oxo-1,2-dihydro-1,7-naphthyridin-5-yl)-5,6,7,8-tetrahydropyrido [3,2-d]pyrimidin-2-yl)-N-(3-(3-(2,6-dioxo-piperidin-3-yl)benzofuran-5-yl)prop-2-yn-1-yl)picolinamide] | 40 to 59% | 1 to 9.9 nM | > 1000 nM | < 20% |
| Cc1cc(-c2ncc3c(n2)CCCN3c2nc(N3CCOCC3)cc3c2cc(C)c(=O)n3C)cnc1C(=O)NCC#Cc1ccc2occ(C3CCC(=O)NC3=O)c2c1 (centres unmarked) [Example B71, 5-(5-(1,3-dimethyl-7-morpholino-2-oxo-1,2-dihydro-1,6-naphthyridin-5-yl)-5,6,7,8-tetrahydropyrido[3,2-d]pyrimidin-2-yl)-N-(3-(3-(2,6-dioxopiperidin-3-yl)benzofuran-5-yl)prop-2-yn-1-yl)-3-methylpicolinamide] | > 80% | 1 to 9.9 nM | > 1000 nM | < 20% |
| Cc1cc2c(N3CCCc4nc(-c5ccc(C(=O)NCC#Cc6ccc7occ([C@H]8CCC(=O)NC8=O)c7c6)nc5)ncc43)nc(N3CCOCC3)cc2n(C)c1=O [Example B72, (R)-5-(5-(1,3-dimethyl-7-morpholino-2-oxo-1,2-dihydro-1,6-naphthyridin-5-yl)-5,6,7,8-tetrahydropyrido[3,2-d]pyrimidin-2-yl)-N-(3-(3-(2,6-dioxopiperidin-3-yl)benzofuran-5-yl)prop-2-yn-1-yl)picolinamide] | 60 to 79% | 1 to 9.9 nM | > 1000 nM | < 20% |
